Reference: patent US4861760A, “Ophthalmological composition of the type which undergoes liquid-gel phase transition” (Merck & Co., Inc., priority 1985, dated 1989)

How the values were obtained:
eye = conditions: rabbit, in vivo
[1] = compatibility / gelling effect of ingredients in Gelrite solution; assay type: physicochemical; conditions: 0.1 mg/ml added; can be eliminated by adding a small amount of acetic acid

Substance	eye irritation (eye)	gelling effect in a Gelrite solution [1]
gellan gum	not regarded as an eye irritant	
benzalkonium chloride		slight gelling effect
